The record followed here is US7538226B2, “(1S,5S)-3-(5,6-dichloro-3-pyridinyl)-3,6-diazabicyclo[3.2.0]heptane” (Abbott Laboratories, priority 2003, dated 2009).

Data set [1] has as its system scopolamine-induced cognitive deficit. Kind of data set: Morris water maze, spatial discrimination version, scopolamine-induced cognitive deficit. Format: in vivo, rat. Conditions: about 0.001 to about 5 μmol/kg, 30 minutes prior to the test; scopolamine HBr 0.3 mg/kg i.p. The method, then:
Male, Long-Evans rats, 300-400 g, obtained from Charles River laboratories were used in this study. During two daily habituation sessions, rats are trained to find a visible escape platform in a pool (180 cm diameter and 60 cm high) filled to a depth of 37 cm with water made opaque with powdered milk. Water temperature is maintained at 26° C. On the second day of habituation training, latency to escape measures are obtained in order to assure that animals are assigned to groups without swim speed bias. For spatial discrimination training, two visible platforms, covered in aluminum foil, are present. The platforms remain in the same position (diagonal to each other) through 5 days of training. Only one of the platforms provides escape; the other, made of expanded polystyrene, will not support the animals' weight. Rats receive six trials/day, with start position changed from trial to trial. The number of contacts with the incorrect platform (errors) serves as the dependent variable.
A cognitive deficit, as measured by increased number of errors in the water maze test, is induced by i.p. administration of the muscarinic antagonist scopolamine·HBr (0.3 mg/kg), dosed 15 min prior to each daily discrimination training session (over five days total).

A further data set in a line: Solubility in water. In kind it is physicochemical.

For the compound `Clc1cc(N2C[C@@H]3CN[C@@H]3C2)cnc1Cl` [(1S,5S)-3-(5,6-Dichloropyridin-3-yl)-3,6-diaza-bicyclo[3.2.0]heptane], the “effect on scopolamine-induced cognitive deficit in the water maze” value in data set [1] is “reversed the cognitive deficit and normalized the performance of the animals in the water maze”.

In “Solubility in water”, `CC(=O)O.Clc1cc(N2C[C@@H]3CN[C@@H]3C2)cnc1Cl` [Example 6, (1S,5S)-3-(5,6-Dichloro-pyridin-3-yl)-3,6-diaza-bicyclo[3.2.0]heptane acetate] had a solubility of 13.4 mg/mL.

For `CS(=O)(=O)O.Clc1cc(N2C[C@@H]3CN[C@@H]3C2)cnc1Cl` [Example 8, (1S,5S)-3-(5,6-Dichloro-pyridin-3-yl)-3,6-diaza-bicyclo[3.2.0]heptane methanesulfonate], the solubility in the data set “Solubility in water” is > 50 mg/mL.

Compound `Clc1cc(N2C[C@@H]3CN[C@@H]3C2)cnc1Cl.O=C(O)/C=C\C(=O)O` [Example 9, (1S,5S)-3-(5,6-Dichloro-pyridin-3-yl)-3,6-diaza-bicyclo[3.2.0]heptane maleate] yielded a solubility in “Solubility in water” of 7.5 mg/mL.

In turn, `Clc1cc(N2C[C@@H]3CN[C@@H]3C2)cnc1Cl.O=C(O)/C=C/C(=O)O` [Example 10, (1S,5S)-3-(5,6-Dichloro-pyridin-3-yl)-3,6-diaza-bicyclo[3.2.0]heptane fumarate] had a solubility in “Solubility in water” of 2.9 mg/mL.
